Reference: article PMC7516806, “Hybrid Antimicrobial Peptide Targeting Staphylococcus aureus and Displaying Anti-infective Activity in a Murine Model” (Frontiers in Microbiology, 2020)
Positions of bridges follow the written chain, without caps; N, C: chain ends. Residues, ends and D or L forms follow the SMILES beside them. No end group written: not given here.

Tests used:
MRSA 43300 = type: cell-based, Staphylococcus aureus; conditions: MHB, 2–7 × 10^5 CFU/ml, 37°C, 24 h, no turbidity, at least three independent repeats
Description: (§1) The experiment was repeated at least three times independently.

P. aeruginosa 27853 = assay: MIC, modified microtiter dilution; type: cell-based, Pseudomonas aeruginosa; conditions: MHB, 2–7 × 10^5 CFU/ml, 37°C, 24 h, no turbidity, at least three independent repeats
Description: as §1

E. coli 25922 = assay: MIC, modified microtiter dilution; type: cell-based, Escherichia coli; conditions: MHB, 2–7 × 10^5 CFU/ml, 37°C, 24 h, lowest concentration with no turbidity, at least three independent repeats
Description: as §1

E. coli UB1005 = assay: MIC, modified microtiter dilution; type: cell-based, Escherichia coli; conditions: MHB, 2–7 × 10^5 CFU/ml, 37°C, 24 h, no turbidity, at least three independent repeats
Description: as §1

RAW 264.7 cells = assay: Cytotoxicity, MTT dye reduction assay; type: cell-based, murine; conditions: highest concentration of 128 μM, 4 h, three independent repeats
Protocol: The cytotoxicity of peptides was determined by healthy human erythrocytes and the murine macrophage cell line RAW 264.7 via a hemolysis assay and MTT dye reduction assay, respectively ([Wang et al., 2018]). In the hemolysis assay, fresh hRBCs from healthy people were centrifuged for 5 min at 1,000 × g and then washed three times with PBS (pH = 7.2). The 100 μL erythrocyte suspension and peptides were incubated for 1.5 h in an incubator at 37°C. The 96-well plates were centrifuged at 1,000 × g for 5 min, and the supernatants were carefully aspirated. The absorbance at 570 nm indicated the leakage of hemoglobin. The hRBCs in the PBS sample was used as the negative control, and 0.1% Triton X-100 addition served as the positive control. In the MTT dye reduction assay, 1.0–2.0 × 10^5 cells were plated in 96-well plates and then treated with various concentrations of peptides for 4 h at 37°C in a 5% CO2 incubator. Subsequently, 50 μL of MTT was added to the plated cells at a final concentration of 0.5 mg/mL and incubated for 4 h. Then, the cells were centrifuged at 1000 × g for 5 min, and the supernatants were discarded. Formazan crystals were dissolved in 150 μL of DMSO, and the OD570 nm was measured using a microplate reader (TECAN GENios F129004; TECAN, Austria). The experiment was repeated three times independently.

S. typhimurium 7731 = assay: MIC, modified microtiter dilution; type: cell-based, Salmonella typhimurium; conditions: MHB, 2–7 × 10^5 CFU/ml, 37°C, 24 h, no turbidity, at least three independent repeats
Description: as §1

S. typhimurium 14028 = assay: MIC, modified microtiter dilution; type: cell-based, Salmonella typhimurium; conditions: MHB, 2–7 × 10^5 CFU/ml, 37°C, 24 h, no turbidity, at least three independent repeats
Description: as §1

L. plantarum 8014 = assay: MIC, modified microtiter dilution; type: cell-based, Lactobacillus plantarum; conditions: 2–7 × 10^5 CFU/ml, 37°C, 24 h, no turbidity, at least three independent repeats
Description: as §1

S. aureus 29213 [1] = assay: MIC in the presence of physiological salts; type: cell-based, Staphylococcus aureus; conditions: three independent repeats; for MIC against S. aureus 29213, FeCl3: 4 μM FeCl3; for MIC against S. aureus 29213, FeCl3 / MIC against S. aureus 29213, NH4Cl / MIC against S. aureus 29213, ZnCl2 / MIC against S. aureus 29213, MgCl2 / MIC against S. aureus 29213, CaCl2 / MIC against S. aureus 29213, KCl / MIC against S. aureus 29213, NaCl: unit not given in Table 4; for MIC against S. aureus 29213, NH4Cl: 6 μM NH4Cl; for MIC against S. aureus 29213, ZnCl2: 8 μM ZnCl2; for MIC against S. aureus 29213, MgCl2: 1 mM MgCl2; for MIC against S. aureus 29213, CaCl2: 2 mM CaCl2; for MIC against S. aureus 29213, KCl: 4.5 mM KCl; for MIC against S. aureus 29213, NaCl: 150 mM NaCl
Protocol: as §1
The MIC of peptides was determined in the presence of salts at physiological concentrations (150 mM NaCl, 4.5 mM KCl, 6 μM NH4Cl, 8 μM ZnCl2, 1 mM MgCl2, 2 mM CaCl2, and 4 μM FeCl3) as described previously ([Dong et al., 2014]). All experiments were performed three times independently.

L. rhamnosus 7469 = assay: MIC, modified microtiter dilution; type: cell-based, Lactobacillus rhamnosus; conditions: 2–7 × 10^5 CFU/ml, 37°C, 24 h, no turbidity, at least three independent repeats
Description: as §1

L. rhamnosus 1.0385 = assay: MIC, modified microtiter dilution; type: cell-based, Lactobacillus rhamnosus; conditions: 2–7 × 10^5 CFU/ml, 37°C, 24 h, no turbidity, at least three independent repeats
Description: as §1

L. rhamnosus 1.0911 = assay: MIC, modified microtiter dilution; type: cell-based, Lactobacillus rhamnosus; conditions: 2–7 × 10^5 CFU/ml, 37°C, 24 h, no turbidity, at least three independent repeats
Description: as §1

L. rhamnosus 1.0936 = assay: MIC, modified microtiter dilution; type: cell-based, Lactobacillus rhamnosus; conditions: 2–7 × 10^5 CFU/ml, 37°C, 24 h, no turbidity, at least three independent repeats
Description: as §1

S. aureus 25923 = assay: MIC, modified microtiter dilution; type: cell-based, Staphylococcus aureus; conditions: MHB, 2–7 × 10^5 CFU/ml, 37°C, 24 h, no turbidity, at least three independent repeats
Description: as §1

S. aureus 29213 [2] = assay: MIC, modified microtiter dilution; type: cell-based, Staphylococcus aureus; conditions: MHB, 2–7 × 10^5 CFU/ml, 37°C, 24 h, no turbidity, at least three independent repeats
Description: as §1

[3] = system: panel of bacterial species; assay: MIC against a panel of bacterial species (summary statements); type: cell-based; conditions: all tested bacteria, up to the highest concentration measured
Description: as §1

S. pullorum 7913 = assay: MIC, modified microtiter dilution; type: cell-based, Salmonella pullorum; conditions: MHB, 2–7 × 10^5 CFU/ml, 37°C, 24 h, no turbidity, at least three independent repeats
Description: as §1

E. coli K88 = conditions: MHB, 2–7 × 10^5 CFU/ml, 37°C, 24 h, no turbidity, at least three independent repeats
Description: (§2) The bacterial strains Escherichia coli (E. coli) ATCC 25922, E. coli K88, E. coli K99, Pseudomonas aeruginosa (P. aeruginosa) ATCC 27853, Escherichia coli (E. coli) UB1005, Salmonella typhimurium 14028, Salmonella pullorum (S. pullorum) C7913, S. typhimurium C7731, S. aureus ATCC 29213, MRSA ATCC 43300, and S. aureus ATCC 25923 were obtained from the College of Veterinary Medicine, Northeast Agricultural University, China. Lactobacillus plantarum (L. plantarum) 8014, Lactobacillus rhamnosus (L. rhamnosus) 7469, L. rhamnosus 1.0911, L. rhamnosus 1.0936, and L. rhamnosus 1.0385 were obtained from the Key Laboratory of Food College, Northeast Agricultural University, China.
(§3) As in a previous study, the antimicrobial activities of the AMPs were investigated using a modified standard microtiter dilution method ([Dong et al., 2014]). The peptides were serially diluted with a solution containing 0.01% acetic acid and 0.2% bovine serum albumin (BSA, Sigma) in 96-well plates. The bacteria grew to the mid-log phase and then were dissolved in MHB at concentration of 2–7 × 10^5 CFU/ml. The peptides and bacterial solution were mixed in equal volume in a 37°C incubator for 24 h. […] Mueller-Hinton broth with microorganisms was used as the positive control, and the pure broth was used as the negative control. The experiment was repeated at least three times independently.

E. coli K99 = conditions: MHB, 2–7 × 10^5 CFU/ml, 37°C, 24 h, no turbidity, at least three independent repeats
Description: as §2, §3

Molecule | MIC MRSA 43300 (MRSA 43300) | MIC P. aeruginosa 27853 (P. aeruginosa 27853) | MIC E. coli 25922 (E. coli 25922) | MIC E. coli UB1005 (E. coli UB1005) | RAW 264.7 cell survival rate (RAW 264.7 cells) | MIC S. typhimurium 7731 (S. typhimurium 7731) | MIC S. typhimurium 14028 (S. typhimurium 14028) | MIC L. plantarum 8014 (L. plantarum 8014) | MIC against S. aureus 29213, FeCl3 (S. aureus 29213 [1]) | MIC against S. aureus 29213, NH4Cl (S. aureus 29213 [1]) | MIC against S. aureus 29213, ZnCl2 (S. aureus 29213 [1]) | MIC against S. aureus 29213, MgCl2 (S. aureus 29213 [1]) | MIC against S. aureus 29213, CaCl2 (S. aureus 29213 [1]) | MIC against S. aureus 29213, KCl (S. aureus 29213 [1]) | MIC against S. aureus 29213, NaCl (S. aureus 29213 [1]) | MIC L. rhamnosus 7469 (L. rhamnosus 7469) | MIC L. rhamnosus 1.0385 (L. rhamnosus 1.0385) | MIC L. rhamnosus 1.0911 (L. rhamnosus 1.0911) | MIC L. rhamnosus 1.0936 (L. rhamnosus 1.0936) | MIC S. aureus 25923 (S. aureus 25923) | other results
CC(C)C[C@H](NC(=O)[C@H](CC(C)C)NC(=O)[C@H](Cc1c[nH]c2ccccc12)NC(=O)[C@H](Cc1c[nH]c2ccccc12)NC(=O)[C@H](Cc1c[nH]c2ccccc12)NC(=O)[C@H](CCCNC(=N)N)NC(=O)[C@H](CS)NC(=O)[C@H](Cc1ccccc1)NC(=O)[C@H](Cc1ccc(O)cc1)NC(=O)[C@H](CO)NC(=O)[C@H](C)NC(=O)[C@@H](N)CS)C(N)=O [Peptide S4] (H-CASYFCRWWWLL-NH2; N-terminus assumed) | >64 µM | >64 µM | >64 µM | >64 µM | 90% | >64 µM | >64 µM | >64 µM | >64 µM | >64 µM | >64 µM | >64 µM | >64 µM | >64 µM | >64 µM | >64 µM | >64 µM | >64 µM | >64 µM | >64 µM | MIC S. aureus 29213 (S. aureus 29213 [2]): >64 µM; antimicrobial activity against the tested microorganisms [3]: failed to show antimicrobial activity; MIC S. pullorum 7913 (S. pullorum 7913): >64 µM; MIC E. coli K88 (E. coli K88): >64 µM; MIC E. coli K99 (E. coli K99): >64 µM
C[C@@H]1NC(=O)[C@@H](N)CSSC[C@@H](C(N)=O)NC(=O)[C@H](Cc2ccccc2)NC(=O)[C@H](Cc2ccc(O)cc2)NC(=O)[C@H](CO)NC1=O [Peptide S5] (H-CASYFC-NH2; disulfide 1-6; N-terminus and C-terminus assumed) | – | – | – | – | – | – | – | – | – | – | – | – | – | – | – | – | – | – | – | – | MIC against S. aureus 29213 (column MIC, no added salt) (S. aureus 29213 [1]; control without added salt, unit not printed in Table 4, μM as in Table 3): >64 µM; antimicrobial activity against the tested microorganisms [3]: failed to show antimicrobial activity
RWWWRR-NH2 [Peptide S6] | 8 µM | >64 µM | 32 µM | 32 µM | 94% | >64 µM | >64 µM | >64 µM | 32 µM | 16 µM | 4 µM | 32 µM | 32 µM | 16 µM | 8 µM | >64 µM | >64 µM | >64 µM | >64 µM | 16 µM | MIC S. aureus 29213 (S. aureus 29213 [2]): 16 µM; MIC S. pullorum 7913 (S. pullorum 7913): >64 µM; MIC E. coli K88 (E. coli K88): 32 µM; MIC E. coli K99 (E. coli K99): 32 µM
RWWWAA-NH2 [Peptide S8] | >64 µM | >64 µM | >64 µM | >64 µM | 85% | >64 µM | >64 µM | >64 µM | >64 µM | >64 µM | 64 µM | >64 µM | >64 µM | >64 µM | >64 µM | >64 µM | >64 µM | >64 µM | >64 µM | >64 µM | MIC S. aureus 29213 (S. aureus 29213 [2]): >64 µM; MIC S. pullorum 7913 (S. pullorum 7913): >64 µM; MIC E. coli K88 (E. coli K88): >64 µM; MIC E. coli K99 (E. coli K99): >64 µM
